One assay concerns BEAS-2B cells. The assay can be described thus: MTT cytotoxicity assay. Format: cell-based, human. The conditions noted are these: 24 h.
Assay [1] concerns E. histolytica trophozoites (amoebic liver abscess). As to the kind of experiment: Amoebic liver abscess (ALA) model, antiparasitic protocol. Format: in vivo, Mesocricetus auratus. The text has this: M. auratus was used as an animal model because the hamster is naturally susceptible to infection by E. histolytica and can develop amoebic colitis or extraintestinal complications such as an ALA [71]. In this context, the hamster can be used to search for new alternative therapeutic agents against amoebiasis. The hamsters were acquired from Charles River Laboratories Inc. (Wilmington, MA, USA) in 2017 by Centro de Investigación y de Estudios Avanzados del Instituto Politécnico Nacional ([…]-IPN). […] Male hamsters (sexually mature and homozygous) weighing 95 ± 5 g and ≈10 weeks old were selected for the experiments. They were maintained in aseptic conditions at 25 ± 1 °C, 50 ± 3% humidity, a 12 h photoperiod, and ad libitum access to a standard diet (LabDiet; Richmond, IN, USA) and water (Figure 5A). The hamsters were housed in polycarbonate boxes (five per box), with an American Iron and Steel Institute (AISI) lid and wood shavings as bedding, in a controlled room of the Animal Production and Experimentation Unit (UPEAL) from […]-IPN (Figure 5A). Additionally, the health state of the hamsters and their adaptation to the new laboratory conditions were evaluated for 15 days to decrease their stress and anxiety levels. This study was carried out according to the Official Mexican Regulations (NOM-062-ZOO-1999) and NC3Rs ARRIVE [60, 72]. The protocol was approved by the Institutional Animal Care and Use Committee (Reg. No. 0183-16). Finally, the hamsters were not subjected to any previous experimental procedure or any additional treatment before beginning the experimental procedures (see File S1, NC3Rs ARRIVE Guidelines Checklist). Compounds that are prohibited and/or not recommended for use in animals by the American Veterinary Medical Association (Guidelines for the Euthanasia of Animals) were not used.
These experiments were performed with three independent biological replicates. For each replicate, twenty-five hamsters were randomly distributed (simple type) into five experimental groups (five animals per group). The sample size was determined based on the Organization for Economic Cooperation and Development (OECD) recommendations that establish the minimum number of individuals required for the tests so as not to sacrifice animals unnecessarily. Laparotomy was performed in aseptic conditions by using depilation, iodine solution, as well as sterile field cloths. Subsequently, an intra-hepatic puncture was made to deliver 1.5 × 10^6 virulent E. histolytica trophozoites in 100 μL of 1× PBS into the left hepatic lobe for ALA induction (Figure 5A-3). The injection site was immediately covered by applying a gel foam pad to maintain hemostasis. The abdominal layers were sutured discontinuously by single vertical stitches using Vicryl synthetic absorbable suture with a triangular pointed half circle needle. Irregular edges or folds in the surgical wound were eliminated to avoid tissue devitalization or possible infections. The development of a hepatic ALA was monitored for 4 days (Figure 5A-4).
(Figure 5B). The compounds were administered by the i.p. route because the peritoneal cavity presents rapid fluid absorption into the bloodstream, and initial biotransformation by the gastrointestinal tract is avoided. […] The hamsters were evaluated 24 h post-treatment to detect any signs of discomfort/pain or toxicity. The humane endpoint criteria used in this study were >20% body weight loss overnight, cachexia, recumbence, lethargy, respiratory distress, inability to reach food and water, lack of grooming, and ulceration around the surgical site, among others. Additionally, the weight of hamsters was determined at the beginning and end of the experiment with an electronic bascule (CS200, Ohaus; Parsippany, NJ, USA), and the ALA volume was calculated based on imaging (Figure 5B-1). […]

Values after ≈ are worked out from the molar mass of the structure shown.

Take `C[C@]12C[C@H](c3ccoc3)OC(=O)[C@H]1CCC13COC(=O)C1=CC=C[C@H]32` (stereo partly drawn) [LL, (4S,7R,9R,10S)-7-(furan-3-yl)-9-methyl-6,16-dioxatetracyclo[8.7.0.01,14.04,9]heptadeca-11,13-diene-5,15-dione]: the “biological activity symbol on IC50 BEAS-2B” value in the assay on BEAS-2B cells was “-”. Also, it took 200 µg/mL (≈ 588 µM) to reach half-maximal inhibition with BEAS-2B cells (Homo sapiens, BEAS-2B) (IC50). In assay [1] (ALA characteristics), the Edges result is “Regular and well defined”; the Leukocyte infiltrate result was “+/−”; the Liquid result is given as “−”; the Morphology entry is reported as “Loculated ovoid”. Moreover, the “ALA Volume” value in assay [1] (MRI, i.p. 4 days) is 562.3 ± 23.3 * mm^3. For the same molecule, the “MRI T1 signal of ALA” value in assay [1] (T1) is given as “Intermediate intensity”. Also, in assay [1] (T2), the “MRI T2 signal of ALA” value is “hypointense”. The “ALA Weight” value in assay [1] (i.p. 4 days, KP 5, LL 10, MTZ 10 mg/kg/day) was found to be 0.40 ± 0.20 g.

The values above are taken from publication PMC11477209, “Toxicological Evaluation of Kaempferol and Linearolactone as Treatments for Amoebic Liver Abscess Development in Mesocricetus auratus” (International Journal of Molecular Sciences, 2024).
